Reference: PubChem BioAssay (NCI)
Values joined by “and” are separate entries in the source; they are usually repeats but may differ in a detail not shown here. Equal entries are not always repeated.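 These data come from cells grown in 96-well plates and exposed to compound for 48 hours at five concentrations. GI50 marks 50% less growth. Definition used: TGI = concentration required for complete inhibition of growth.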 Where a SMILES comes first, the peptide text is derived from it. [ ]: non-standard residue; d: D form. The star is where a group is joined. ξ: configuration not given here. X3 = COc1ccc(C(N*)c2ccc(OC)cc2)cc1; NMeF = CN[C@@H](Cc1ccccc1)C(=O)O; NMeD = CN[C@@H](CC(=O)O)C(=O)O; NMeV = CN[C@H](C(=O)O)C(C)C; ξNMeV = CNC(C(=O)O)C(C)C; Boc = CC(C)(C)OC(=O)*; ξNMeA = CNC(C)C(=O)O; ξV = CC(C)C(N)C(=O)O

Legend:
Test in all cases: DTP human tumour cell line panel, 48 h
[1] = tested on: A549 NSCLC
[2] = tested on: BT-549 breast
[3] = tested on: EKVX NSCLC
[4] = tested on: M14 melanoma
[5] = tested on: NCI-H23 lung
[6] = tested on: NCI-H522 lung
[7] = tested on: NCI/ADR-RES ovarian
[8] = tested on: SF-268 CNS
[9] = tested on: SN12C renal
[10] = tested on: SNB-75 CNS

Structure (SMILES)	GI50 [1] [µM]	TGI [1]	GI50 [2] [µM]	TGI [2] [µM]	GI50 [3] [µM]	TGI [3]	GI50 [4] [µM]	TGI [4]	GI50 [5] [µM]	TGI [5]	GI50 [6] [µM]	TGI [6]	GI50 [7] [µM]	TGI [7] [µM]	GI50 [8] [µM]	TGI [8]	GI50 [9] [µM]	TGI [9]	GI50 [10] [µM]	TGI [10]
COc1ccc(C2[C@@H](c3ccccc3)C(=O)N2c2cc(OC)c(OC)c(OC)c2)cc1F (some centres undefined)	0.0368	> 100 µM	0.0266	0.09	0.0776	> 100 µM	0.0226	0.0672 µM	0.0489	> 100 µM	0.0186	0.0657 µM	0.0394	> 100	0.0443	> 100 µM	0.0561	> 100 µM	0.0314	> 100 µM
O=C(O)c1ccc2c(c1C(=O)O)C(=O)OC2(c1ccc(O)cc1)c1ccc(O)cc1		> 100 µM		> 100		> 100 µM		> 100 µM		> 100 µM		> 100 µM		> 100		> 100 µM		> 100 µM		> 100 µM
CCN1C(=O)N(c2ccccc2)C2NC(=S)N(/N=C/C=C/c3ccccc3OC)C21 (centres undefined)	0.121	> 100 µM	0.112	3.41	0.174	> 100 µM	0.0946		0.174	> 61.6 µM	0.0409	0.189 µM	0.0782	> 72.4	0.195	> 100 µM	0.139	> 42.2 µM	0.0383	> 41.4 µM
CCOC(=O)C1=C(C)N(c2ccc(F)cc2F)[C@]2(C#N)C(O)=C(Cl)C(Cl)=C(O)[C@]12C#N	> 100	> 100 µM	> 100	> 100	> 100	> 100 µM	> 100	> 100 µM	> 100	> 100 µM	> 100	> 100 µM	5.61	> 100	> 100	> 100 µM	> 100	> 100 µM	> 100	> 100 µM
COc1ccc2nc3cc(Cl)ccc3c(NCCNCC(C)O)c2c1 (centres undefined)	1.52	3.16 µM	7.92	21.8	2.6	10.7 µM	1.68	3.6 µM	1.93	6.16 µM	1.48	3.1 µM	3.08	14	2.36	12.3 µM	1.85	7.4 µM	1.9	8.71 µM
Nc1n[nH]c2cccc(C#Cc3cccc(C(=O)Nc4ccc(CN5CCOCC5)c(C(F)(F)F)c4)c3)c12	3.13	11.3 µM	2.14	6.03	3.42	19 µM	1.17	3.59 µM	2.1	11.3 µM	2.52	9.28 µM	3.07	> 100	2.72	13.3 µM	2.48	9.48 µM	3.21	12.8 µM
O=S(=O)(c1ccccc1)N1CCN(S(=O)(=O)c2ccccc2)c2ccccc21		> 100 µM		> 100		80.1 µM		> 100 µM		> 100 µM		> 100 µM		> 100		> 100 µM		> 100 µM		> 100 µM
CC(C)[C@@H]1C=C2CC[C@H]3[C@](C)(CN)CCC[C@]3(C)[C@H]2CC1	3.07	11 µM	16.5	35.4	7.32	23.4 µM	1.86	3.4 µM	1.94	4.09 µM	1.91	4.16 µM	2.62	7.32	7.27	20.7 µM	3.42	14 µM	14.8	28.8 µM
Nc1cc(NN=C(c2ccc(O)cc2)c2ccc(O)cc2)c([N+](=O)[O-])cc1[N+](=O)[O-]	2.29	5.69 µM	2.46	6.78	2.42	7.45 µM	1.71	3.49 µM	2.31	6.07 µM	2.46	6.51 µM	3.49	11.6	1.73	3.45 µM	1.58	3.4 µM	1.45	3.92 µM
Nc1n[nH]c2cc(F)c([C@@H]3Nc4ccc5[nH]ncc5c4[C@H]4C5CCC(C5)[C@@H]34)cc12 (some centres undefined)	0.201	> 50 µM	0.141	2.59	0.237	49.4 µM	0.147	12.3 µM	0.193	7.77 µM	0.106	2.08 µM	0.159	0.746	0.368	14.9 µM	0.228	37.1 µM	0.0988	1.12 µM
C=C1C(=O)O[C@H]2[C@H]1CC/C(COC(=O)NCc1ccc(Cn3c(=O)sn(-c4ccc(OC)cc4)c3=O)cc1)=C\CC[C@@]1(C)O[C@@H]21	15.2	29.1 µM	4.37	16.3	3.5	14.6 µM	2.19	5.65 µM	2.97	9.9 µM	1.67	3.1 µM	12.3	28.8	3.14	9.86 µM	2.14	4.96 µM	3.44	15.3 µM
COc1ccc(/C=N/NC(=O)c2cccc3cc[nH]c23)cc1O	5.36	> 100 µM	12.2	> 78.8	11	> 100 µM	1.13	> 100 µM	6.57	> 100 µM	2.26	> 100 µM	1.86	> 100	4.01	> 100 µM	0.493	> 40.9 µM	0.24	> 100 µM
CCC(=C/[C@H](C)C/C=C/C(C)=C/[C@@H](C)C(=O)[C@@H](C)[C@H](O)[C@@H](C)CC)/C=C/[C@H]1OC(=O)C=C[C@@H]1C	< 0.01		< 0.01	0.429	< 0.01	5.21 µM	< 0.01	0.193 µM	< 0.01	3.36 µM	< 0.01		< 0.01	4.31	< 0.01	1.72 µM	< 0.01	1.27 µM	< 0.01	0.655 µM
CN1CC[C@@H](NC(=O)Nc2ccc(C#N)cc2)C[C@@H]1c1nc2ccccc2[nH]1	> 100	> 100 µM	> 100	> 100	> 100	> 100 µM	> 100	> 100 µM	> 42.3	> 60.8 µM	> 100	> 100 µM	> 49.8	> 86.6	> 100	> 100 µM	> 78.9	> 100 µM	> 73.2	> 100 µM
CCCCCCCCCCCCC(O)c1ccc(C#CCCCCCCCCCO)o1 (centres undefined)	16.9	32.9 µM	21.7	42.3	22.2	43.1 µM	17.4	31.9 µM	26.4	48.8 µM	21	45.5 µM	18.3	34.3	23.2	49.4 µM	18.7	33.2 µM	34.1	70.1 µM
CN(C)CC1CC/C(=C\c2ccc(O)cc2)C1=O (centres undefined)		40.9 µM		3.73		14.4 µM		4.95 µM		13.2 µM		3.17 µM		21.5		23.1 µM		14 µM		25.8 µM
CN(C)c1cc(NN=C(c2ccc(O)cc2)c2ccc(O)cc2)c([N+](=O)[O-])cc1[N+](=O)[O-]	4.45	18.5 µM	6.32	21.5	5.49	18.1 µM	9.06	22.6 µM	6.46	23.1 µM	10.5	38.4 µM	5.3	27	3.88	15.9 µM	10.4	23.7 µM	10.4	25 µM
Oc1[nH]c2ccccc2c1N=Nc1nc(-c2ccc(Br)cc2)cs1		70.8 µM		45.6		30.4 µM		59.2 µM		> 100 µM		> 100 µM		44.1		46.8 µM		83.2 µM		46.6 µM
COc1ccc(C(NC(=O)C[C@@H](C(=O)N(C)C(C)C(=O)O)N(C)C(=O)[C@@H]2CCCN2C(=O)[C@H](C(C)C)N(C)C(=O)C(C(C)C)N(C)C(=O)[C@H](Cc2ccccc2)N(C)C(=O)C(NC(=O)OC(C)(C)C)C(C)C)c2ccc(OC)cc2)cc1 (some centres undefined) (Boc-[ξV][NMeF][ξNMeV][NMeV]P[NMeD](X3)[ξNMeA]-OH)	17.1	> 37.5 µM and 31.7 µM		15.4	21.6	37.5 µM and 39.6 µM	17.4	28.6 µM and 31.1 µM	23.1	37.5 µM and 53.4 µM	17.5	27.4 µM and 31.3 µM		> 37.5	15.1	31.9 µM and 28.6 µM	19.1	37.5 µM and 38.9 µM	15.8	17.6 µM and 30.7 µM
Cc1cc(I)cc(CN(CCCN(C)C)C(C)C)c1O	18.2	39.6 µM	11.5	23.9	18.3	42.9 µM	16.2	31 µM	31.4	> 100 µM	16	31.4 µM	23.1	61.6	17.1	32.9 µM	37.8	> 100 µM	16.6	36.3 µM
CC1=C2C(=C[C@@](C)(CO)[C@@H]2O)C(=O)[C@](C)(O)C12CC2		0.0885 µM and 0.2 µM		0.0518		0.0678 µM and 0.0153 µM		0.0228 µM	0.3			0.0108 µM		0.0243		0.0192 µM and 0.106 µM		0.112 µM and 0.119 µM		0.0296 µM and 0.0123 µM
O=C(O)c1nc2nc(Cl)c(Cl)nc2[nH]1		> 100 µM		> 100		> 100 µM		> 100 µM		> 100 µM		> 100 µM		> 100		> 100 µM		> 100 µM		> 100 µM
COc1cccc(C2SC(N)=Nc3c2c(C)nn3C(=O)c2ccccc2O)c1 (centres undefined)		> 10 µM		> 10		> 10 µM		> 10 µM		> 10 µM		> 10 µM		> 10		> 10 µM		> 10 µM		> 10 µM
CCN(C(=O)N1CCN(c2cc3c(cc2F)c(=O)c(C(=O)O)cn3C2CC2)CC1)c1nc(-c2ccc(Cl)cc2)cs1	1.01	> 100 µM	1.02	5.61	2.54	> 100 µM	2.12	> 100 µM	1.56	8.45 µM	1.8	> 26.5 µM	2.07	13.7	1.28	> 100 µM	0.991	> 100 µM	1.37	9.32 µM
COc1cccc(-c2nc(-c3ccc(NC(=O)OC(C)C)cc3)[nH]c2-c2ccnc(Br)c2)c1	2.96	> 100 µM	2.19	> 100	2.45	10.3 µM	3.06	> 100 µM	2.61	9.54 µM	2.48	9.01 µM	2.85	> 100	3.35	> 100 µM	2.94	> 100 µM	0.567	> 100 µM
COC[C@H]1Cn2cc(-c3nc(Nc4ccnn4C)ncc3C)nc2C(=O)N1Cc1ccc(F)c(F)c1	3.23	> 100 µM	48.9	> 100	0.255	> 100 µM	0.0403	> 100 µM	0.181	> 100 µM		> 100 µM	> 100	> 100	29.3	> 100 µM	11.1	> 100 µM	9.59	> 100 µM
